Laboratory results published in patent US8569336B2, “Compounds for the treatment of inflammatory disorders” (priority 2008, dated 2013).
Where two headings read alike, the source gives them in different places.

Tests used:
[1] = tested on: TNF-α production from human whole blood; assay: Inhibition of TNF-α production from human whole blood (hWBA), LPS stimulated, ELISA; format: cell-based; conditions: TNF-α by ELISA, read-out: hWBA (IC50)
[2] = target: T1, purified catalytic domain of recombinant human TACE (rhTACEc) (Homo sapiens, UniProt P78536, N452Q/S266A); assay: TACE kinetic assay: cleavage of internally quenched peptide substrate TNF-FRET 2 (Ki); format: biochemical; conditions: TNF-FRET 2 substrate
T1 construct: 6xHis (C); made in house; host or cells: baculovirus/Hi5 insect cells

[3] = Homo sapiens, LPS-stimulated human whole blood
[4] = Homo sapiens, 3.5 h, human whole blood diluted 1:1, LPS stimulated, 3.5 h
[5] = Homo sapiens, human whole blood diluted 1:1, LPS stimulated

T1 sequence (P78536 215-477 S266A/N452Q): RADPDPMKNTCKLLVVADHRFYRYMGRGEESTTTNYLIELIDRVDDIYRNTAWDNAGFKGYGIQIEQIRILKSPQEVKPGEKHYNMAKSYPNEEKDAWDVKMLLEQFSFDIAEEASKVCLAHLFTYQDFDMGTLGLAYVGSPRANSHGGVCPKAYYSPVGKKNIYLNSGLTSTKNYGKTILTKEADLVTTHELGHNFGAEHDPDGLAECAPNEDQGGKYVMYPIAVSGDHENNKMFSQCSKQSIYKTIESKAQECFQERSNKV

Structure (SMILES)	IC50 [1, 3] [nM]	Ki ([2]; read-out: Ki) [nM]	IC50 [1, 4] [nM]	also measured
CCN1CCN(c2cc3oc([C@]4(CN5Cc6ccc(OC)c(F)c6C5=O)NC(=O)NC4=O)cc3nc2C)CC1 [Compound 1920]	674	2.16		
COc1ccc2c(c1)C(=O)N(C[C@@]1(c3cc4nc(N(CCO)CCN(C)C)ccc4o3)NC(=O)NC1=O)C2 [Compound 1702]	1770	3.96		
O=C1NC(=O)[C@](CN2Cc3ccc(O)cc3C2=O)(c2cc3ncccc3o2)N1 [Compound 1735]	3830			Ki ([2]; Ki): 1.52 nM
COc1ccc2c(c1)C(=O)N(C[C@@]1(c3cc4nc(N5CCN(c6ccncc6)CC5)ccc4o3)NC(=O)NC1=O)C2 [Compound 2143]		0.976	551	
COc1ccc2c(c1)C(=O)N(C[C@@]1(c3cc4nc(N(CCO)Cc5ccccn5)ccc4o3)NC(=O)NC1=O)C2 [Compound 1701]	2210	2.49		
COc1ccc2c(c1F)C(=O)N(C[C@@]1(c3cc4c(F)cnc(C)c4o3)NC(=O)NC1=O)C2 [Compound 1314]	727	1.2		
COc1ccc2c(c1)C(=O)N(C[C@@]1(c3cc4nc(N(CCN(C)C)c5cn[nH]c5)ccc4o3)NC(=O)NC1=O)C2 [Compound 1704]	274	0.86		
COc1ccc2c(c1)C(=O)N(C[C@@]1(c3cc4cc(/C(=N\O)N5CC[C@H](N(C)C)C5)ccc4o3)NC(=O)NC1=O)C2 [Compound 2488]		0.8		IC50 [1, 5]: 321 nM
COc1ccc2c(c1)C(=O)N(C[C@@]1(c3cc4c(C)nc(O)c(C(=O)O)c4o3)NC(=O)NC1=O)C2 [Compound 2436]				IC50 [1, 5]: 2390 nM; Ki ([2]; Ki): 2.41 nM
COc1ccc2c(c1F)C(=O)N(C[C@@]1(c3cc4nc(-c5cccnc5)ccc4o3)NC(=O)NC1=O)C2 [Compound 2218]		0.232	1000	
COc1ccc2c(c1)C(=O)N(C[C@@]1(c3cc4cc(CNCC5CCNCC5)ccc4o3)NC(=O)NC1=O)C2 [Compound 2183]		1.02	526	
COCCN1CCN(c2ccc3oc([C@]4(CN5Cc6ccc(OC)cc6C5=O)NC(=O)NC4=O)cc3n2)CC1 [Compound 1500]	333	1.1		
COc1ccc2c(c1)C(=O)N(C[C@@]1(c3ccc(C(=O)N4CCOCC4)cc3)NC(=O)NC1=O)C2 [Compound 2405]		2.91		IC50 [1, 5]: 2710 nM
COc1ccc2c(c1F)C(=O)N(C[C@@]1(c3cc4nc(Nc5cn[nH]c5)ccc4o3)NC(=O)NC1=O)C2 [Compound 1730]	175	0.6		
COc1cc2c(cc1OC)C(=O)N(C[C@@]1(c3cc4cnccc4o3)NC(=O)NC1=O)C2 [Compound 200]	≥ 10000	7.23		
COc1ccc2c(c1)C(=O)N(C[C@@]1(c3cc4cc(C(=O)NCCNC(C)C)c(F)cc4o3)NC(=O)NC1=O)C2 [Compound 1276]		1.2	251	
COc1ccc2c(c1F)C(=O)N(C[C@@]1(c3cc4nc(N5CCCNCC5)ccc4o3)NC(=O)NC1=O)C2 [Compound 1712]	189	0.83		
COc1ccc2c(c1)C(=O)N(C[C@@]1(c3cc4cc(C(=O)N5CCC(N(C)C)CC5)c(F)cc4o3)NC(=O)NC1=O)C2 [Compound 1277]		0.62	471	
COc1cc2c(cc1OC)C(=O)N(C[C@]1(c3cc4cnccc4o3)NC(=O)NC1=O)C2 [Compound 201]	6660	149		
COc1ccc2c(c1)C(=O)N(C[C@@]1(c3cc4cc(C(=O)NCCN(C)CCNS(C)(=O)=O)c(F)cc4o3)NC(=O)NC1=O)C2 [Compound 1281]		0.83	1100	
COc1ccc2c(c1F)C(=O)N(C[C@@]1(c3cc4nc(C5CCNCC5)c(F)cc4o3)NC(=O)NC1=O)C2 [Compound 1323]	140	0.08		
COc1ccc2c(c1)C(=O)N(C[C@@]1(c3cc4c(o3)CCN(C(=O)N(C)C)C4)NC(=O)NC1=O)C2 [Compound 319]	501	1.83		
COc1ccc2c(c1F)C(=O)N(C[C@@]1(c3cc4cc5sc(N)nc5cc4o3)NC(=O)NC1=O)C2 [Compound 1743]	236			Ki ([2]; Ki): 0.14 nM
COc1ccc2c(c1)C(=O)N(C[C@@]1(c3cc4ncc(CNCc5ccccc5)cc4o3)NC(=O)NC1=O)C2 [Compound 1912]	3200	2.24		
CN(C)C1CCN(c2ccc3oc(C4(CN5Cc6ccc(Cl)cc6C5=O)NC(=O)NC4=O)cc3n2)CC1 (centres unmarked) [Compound 1291]		1.33	1400	
COc1ccc2c(c1)C(=O)N(C[C@@]1(c3ccc(-c4ccc(C5(C)NC(=O)NC5=O)nc4)cc3)NC(=O)NC1=O)C2 (some centres unmarked) [Compound 2206]		0.82	1780	
O=C1NC(=O)[C@](CN2Cc3ccc(O)c(F)c3C2=O)(c2cc3ncccc3o2)N1 [Compound 1721]	> 10000			Ki ([2]; Ki): 1.64 nM
CCCN1CC=C(c2nc3cc([C@]4(CN5Cc6ccc(OC)c(F)c6C5=O)NC(=O)NC4=O)oc3cc2F)CC1 [Compound 1322]	96	0.51		
COc1ccc2c(c1)C(=O)N(C[C@@]1(c3cc4nc(-c5cc6ccccc6[nH]5)ccc4o3)NC(=O)NC1=O)C2 [Compound 2149]		0.286	534	

More lines, main results first:

IC50 [1, 3] [nM]	Ki ([2]; read-out: Ki) [nM]	IC50 [1, 4] [nM]	Structure (SMILES)	also measured
1510	0.9		COc1ccc2c(c1)C(=O)N(C[C@@]1(c3cc4nc(-c5ccc(OC)nc5)ccc4o3)NC(=O)NC1=O)C2 [Compound 1518]	
	3.99	1040	CNCc1ccc2oc([C@]3(CN4Cc5ccc(OC)cc5C4=O)NC(=O)NC3=O)cc2c1 [Compound 2185]	
	0.72		COCCNC(=O)c1cnc2cc([C@]3(CN4Cc5ccc(OC)cc5C4=O)NC(=O)NC3=O)oc2c1 [Compound 2467]	IC50 [1, 5]: 657 nM
321	0.56		COc1ccc2c(c1)C(=O)N(C[C@@]1(c3cc4ncc(C(=O)NC5CC5)cc4o3)NC(=O)NC1=O)C2 [Compound 1931]	
367	0.12		COc1ccc2c(c1)C(=O)N(C[C@@]1(c3cc4nc(C(=O)NC5CC5)ccc4o3)NC(=O)NC1=O)C2 [Compound 1926]	
4530	0.071		COc1ccc2c(c1)C(=O)N(C[C@@]1(c3cc4c(ccc5sc(C)nc54)o3)NC(=O)NC1=O)C2 [Compound 1739]	
	0.562	222	COc1ccc2c(c1)C(=O)N(C[C@@]1(c3cc4cc(-c5cc(O)nn5C)cnc4o3)NC(=O)NC1=O)C2 [Compound 2276]	
151	0.53		COc1ccc2c(c1)C(=O)N(C[C@@]1(c3cc4cc(-c5cc(O)nc(N)n5)cnc4o3)NC(=O)NC1=O)C2 [Compound 302]	
	0.972	2670	COc1ccc2c(c1)C(=O)N(C[C@@]1(c3cc4cnc(N5CCCC5=O)cc4o3)NC(=O)NC1=O)C2 [Compound 2253]	
	0.374	675	COc1ccc2c(c1)C(=O)N(C[C@@]1(c3cc4nc(-c5cnc(N(C)C)nc5)ccc4o3)NC(=O)NC1=O)C2 [Compound 2152]	
	0.518		COC(=O)c1cnc2cc([C@]3(CN4Cc5ccc(OC)cc5C4=O)NC(=O)NC3=O)oc2c1 [Compound 2458]	IC50 [1, 5]: 841 nM
	0.435	221	COc1ccc2c(c1)C(=O)N(C[C@@]1(c3cc4nc(N5CCNC5=O)ccc4o3)NC(=O)NC1=O)C2 [Compound 2127]	
662	0.377		CSc1ccc2c(c1)C(=O)N(C[C@@]1(c3cc4cnccc4o3)NC(=O)NC1=O)C2 [Compound 309]	
	0.701	343	COc1ccc2c(c1)C(=O)N(C[C@@]1(c3cc4cc(NS(C)(=O)=O)ccc4o3)NC(=O)NC1=O)C2 [Compound 2222]	
	0.564	677	COc1ccc2c(c1)C(=O)N(C[C@@]1(c3cc4cc(N5C(=O)CNC5=O)ccc4o3)NC(=O)NC1=O)C2 [Compound 2225]	
	0.51	667	COc1ccc2c(c1)C(=O)N(C[C@@]1(c3cc4cc(C(=O)O)c(F)cc4o3)NC(=O)NC1=O)C2 [Compound 1272]	
	0.41		COc1ccc2c(c1)C(=O)N(C[C@@]1(c3cc4ccc(C(=O)N(C)C)cc4o3)NC(=O)NC1=O)C2 [Compound 2414]	IC50 [1, 5]: 990 nM
	0.92		COc1ccc2c(c1)C(=O)N(C[C@@]1(c3cc4cc(-c5cccc(C#N)c5)ncc4o3)NC(=O)NC1=O)C2 [Compound 2432]	IC50 [1, 5]: 1720 nM
	0.849		COc1ccc2c(c1)C(=O)N(C[C@@]1(c3cc4cc(-c5ccc(N(C)C)nc5)ccc4o3)NC(=O)NC1=O)C2 [Compound 2197]	IC50 ([1]; human whole blood diluted 1:1, LPS stimulated, 3.5 h): 2710 nM
	0.8		COc1ccc2c(c1)C(=O)N(C[C@@]1(c3cc4c(C(C)=O)nccc4o3)NC(=O)NC1=O)C2 [Compound 2448]	IC50 [1, 5]: 839 nM
	0.79	532	COc1ccc2c(c1)C(=O)N(C[C@@]1(c3cc4cc(CN)ccc4o3)NC(=O)NC1=O)C2 [Compound 2182]	
	2.26		COc1ccc2c(c1)C(=O)N(C[C@@]1(c3cc4c(C)ncc(C(=O)O)c4o3)NC(=O)NC1=O)C2 [Compound 2446]	IC50 [1, 5]: 1600 nM
	0.867		COc1ccc2c(c1)C(=O)N(C[C@@]1(c3cc4nc(C(=O)NCCN(C)C)ccc4o3)NC(=O)NC1=O)C2 [Compound 2466]	IC50 [1, 5]: 567 nM
686	0.83		COc1ccc2c(c1F)C(=O)N(C[C@@]1(c3cc4cc(F)c(C)nc4o3)NC(=O)NC1=O)C2 [Compound 1313]	
	0.36		COc1ccc2c(c1)C(=O)N(C[C@@]1(c3cc4cnc(Cl)nc4o3)NC(=O)NC1=O)C2 [Compound 2301]	IC50 [1, 5]: 532 nM
	0.5	142	COc1ccc2c(c1)C(=O)N(C[C@@]1(c3cc4cc(C(=O)NCCN)c(F)cc4o3)NC(=O)NC1=O)C2 [Compound 1274]	
